# Experimental data taken from US4404218A, “Antibiotic SF-2103A substance and process for production thereof” (Meiji Seika Kaisha Ltd., priority 1980, dated 1983).
# Counter-ions that a name gives are not always drawn.
# How the values were obtained:
# [1] = system: Citrobacter freundii GN 346; assay: synergistic effects with β-lactam antibiotics, paper disk inhibition zone
# [2] = system: Proteus rettgeri GN 624; assay: as above
# [3] = system: Proteus vulgaris M-8243; assay: as above
# [4] = system: Proteus morganii Kono; assay: antibacterial activity, agar dilution method; assay type: cell-based; details: Morganella morganii, Heart Infusion Agar, read-out: Minimum Inhibitory Concentration
# [5] = system: Escherichia coli No. 29; assay: antibacterial activity, agar dilution method; assay type: cell-based; details: Heart Infusion Agar, read-out: Minimum Inhibitory Concentration
# Description: In this determination, Heart Infusion Agar (produced by Eiken Chemical Co., Ltd.) was used as the medium.
# [6] = system: Bacillus subtilis ATCC 6633; assay: antibacterial activity, agar dilution method; assay type: cell-based; details: ATCC6633, Heart Infusion Agar, read-out: Minimum Inhibitory Concentration
# [7] = system: Proteus vulgaris GN 76/C-1; assay: antibacterial activity, agar dilution method; assay type: cell-based; details: GN76, Heart Infusion Agar, read-out: Minimum Inhibitory Concentration
# [8] = solubility; assay type: physicochemical
# [9] = system: Escherichia coli NIHJ JC-2; assay: antibacterial activity, agar dilution method; assay type: cell-based; details: NIHJJC2, Heart Infusion Agar, read-out: Minimum Inhibitory Concentration
# [10] = system: Proteus mirabilis GN 310; assay: antibacterial activity, agar dilution method; assay type: cell-based; details: GN310, Heart Infusion Agar, read-out: Minimum Inhibitory Concentration
# [11] = system: Shigella dysenteriae Shigae; assay: microbe, parasite or virus in culture; assay type: cell-based; details: read-out: Minimum Inhibitory Concentration
# [12] = system: Serratia marcescens No. 1; assay: antibacterial activity, agar dilution method; assay type: cell-based; details: Heart Infusion Agar, read-out: Minimum Inhibitory Concentration
# [13] = system: Citrobacter freundii GN 346; assay: antibacterial activity, agar dilution method; assay type: cell-based; details: GN346, Heart Infusion Agar, read-out: Minimum Inhibitory Concentration
# [14] = system: Staphylococcus aureus 209P; assay: antibacterial activity, agar dilution method; assay type: cell-based; details: Heart Infusion Agar, read-out: Minimum Inhibitory Concentration
# [15] = system: Pseudomonas aeruginosa E-2; assay: antibacterial activity, agar dilution method; assay type: cell-based; details: E2, Heart Infusion Agar, read-out: Minimum Inhibitory Concentration
# [16] = system: Staphylococcus aureus Smith; assay: antibacterial activity, agar dilution method; assay type: cell-based; details: Heart Infusion Agar, read-out: Minimum Inhibitory Concentration
# [17] = toxicity (LD50); details: in vivo, mice or rat
# Method: […]. LD50 values by oral administration, intramuscular injection and intravenous injection were all higher than 2,000 mg/kg.
# [18] = system: Klebsiella pneumoniae PCI 602; assay: antibacterial activity, agar dilution method; assay type: cell-based; details: PCI602, Heart Infusion Agar, read-out: Minimum Inhibitory Concentration
# [19] = system: Escherichia coli GN206; assay: mouse protection test, Experiment I; details: observed 7 days, groups of five
# [20] = system: Penicillinase; assay: β-lactamase inhibitory activity, modified Sargent's method; assay type: biochemical; details: at 10 ^.parallel.g/ml; substrate Penicilline G Potassium Salt
# Description: The Sargent's method was partly modified as follows
# Reagent A: Enzyme solution properly diluted with 0.1 M phosphate buffer (pH 7.0) as to show 0.6 optical density of consumption of iodine at 490 nm when measured under the undermentioned conditions.
# Reagent B: 1.3% Penicillin G potassium salt aqueous solution for penicillinase assay. 1.3% Cefalotin sodium salt aqueous solution for cephalosporinase assay (β-lactamase of Proteus vulgaris M-8243 or Citrobacter freundii GN 346).
# Reagent C: 0.1 M phosphate buffer (pH 7.0)
# Reagent D: Iodine acetate buffer solution which is prepared by adding 5 ml of stock iodine solution* to 95 ml of pH 4.0 acetate buffer (80 g of anhydrous sodium acetate adjusted to pH 4.0 with acetic acid and made up to 2 liters with distilled water).
# A reaction mixture consisted of 0.5 ml of Reagent B and 2 ml of Reagent C is pre-incubated for 5 min at 30° C., and 0.5 ml of Reagent A is added to it and kept for 30 min at 30° C. At the end of reaction, 5 ml of Reagent D is added with rapid mixing and kept for 10 min at 30° C., then the optical density at 490 nm is measured.
# As the blank test, an incubation mixture containing 0.5 ml of Reagent B and 2 ml of Reagent C is kept at 30° C. for 30 min, after that 5 ml of Reagent D and 0.5 ml of Reagent A are added to it. Then the optical density is measured in the same way. […]
# [21] = molecular target: T1, β-lactamase of Citrobacter freundii GN 346 (Citrobacter freundii, UniProt P05193); assay: as above; assay type: biochemical; details: read-out: 50% Inhibitory Concentration (I50) (converted)
# T1 construct: cefalotin substrate
# T1 sequence (P05193 21-381): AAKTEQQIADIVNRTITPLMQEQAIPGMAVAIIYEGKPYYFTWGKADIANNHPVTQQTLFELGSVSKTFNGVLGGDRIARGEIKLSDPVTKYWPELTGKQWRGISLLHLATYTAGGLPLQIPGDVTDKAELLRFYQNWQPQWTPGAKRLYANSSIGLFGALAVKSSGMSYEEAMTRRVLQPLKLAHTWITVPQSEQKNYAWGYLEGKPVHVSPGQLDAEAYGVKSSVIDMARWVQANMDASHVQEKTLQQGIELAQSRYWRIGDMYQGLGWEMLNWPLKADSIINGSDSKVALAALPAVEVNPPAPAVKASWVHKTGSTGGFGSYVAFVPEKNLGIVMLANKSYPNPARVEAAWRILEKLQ
# [22] = stability; assay type: physicochemical
# Description: Furthermore, it is difficult to isolate the SF-2103A substance in a free acid form because it is, as described above, very unstable in an acidic state. The SF-2103A substance is therefore obtained as a salt thereof in a pale yellow or white amorphous powder form by freeze-drying a neutral aqueous solution thereof. The purity of the SF-2103A substance obtained varies depending on the potency of the culture broth.
# [23] = β-lactam alone on 8 mm disk (Ampicillin 10 μg, Carbenicillin 2 μg, Cefalotin 2 μg, Cefaloridine 5 μg), 37° C., 16 hours
# [24] = SF-2103A alone, 1 μg per disk, listed as SF-2103A
smiles,measurement,setting,value
CC1(C)S[C@@H]2[C@H](NC(=O)[C@H](N)c3ccccc3)C(=O)N2[C@H]1C(=O)O [Ampicillin],Diameter of Inhibition Zone,[1]; [23],0 mm
same,Diameter of Inhibition Zone,[2]; [23],0 mm
same,Diameter of Inhibition Zone,[3]; [23],0 mm
CC1(C)S[C@@H]2[C@H](NC(=O)C(C(=O)O)c3ccccc3)C(=O)N2[C@H]1C(=O)O (stereo partly drawn) [Carbenicillin],Diameter of Inhibition Zone,[1]; [23],0 mm
same,Diameter of Inhibition Zone,[2]; [23],0 mm
same,Diameter of Inhibition Zone,[3]; [23],0 mm
O=C(Cc1cccs1)N[C@@H]1C(=O)N2C(C(=O)[O-])=C(C[n+]3ccccc3)CS[C@H]12 [Cefaloridine],Diameter of Inhibition Zone,[1]; [23],0 mm
same,Diameter of Inhibition Zone,[2]; [23],0 mm
same,Diameter of Inhibition Zone,[3]; [23],0 mm
CC(=O)OCC1=C(C(=O)O)N2C(=O)[C@@H](NC(=O)Cc3cccs3)[C@H]2SC1 [Cefalotin],Diameter of Inhibition Zone,[1]; [23],0 mm
same,Diameter of Inhibition Zone,[2]; [23],0 mm
same,Diameter of Inhibition Zone,[3]; [23],0 mm
CC(OS(=O)(=O)O)C1C(=O)N2C(C(=O)O)=C(S(=O)(=O)O)CC12 (stereo not drawn) [SF-2103A substance sodium salt],MIC,[4],25 mg/L
same,MIC,[5],3.13 mg/L
same,MIC,[6],50 mg/L
same,MIC,[7],25 mg/L
same,Solubility,[8]; in benzene,insoluble
same,Solubility,[8]; in chloroform,insoluble
same,Solubility,[8]; in ethyl acetate,insoluble
same,Solubility,[8]; in methanol,soluble
same,Solubility,[8]; in water,Freely soluble
same,MIC,[9],12.5 mg/L
same,MIC,[10],50 mg/L
same,MIC,[11],3.13 mg/L
same,MIC,[12],50 mg/L
same,MIC,[13],6.25 mg/L
same,MIC,[14],25 mg/L
same,MIC,[15],> 100 mg/L
same,MIC,[16],25 mg/L
same,LD50,"[17]; im, intramuscular injection",> 2000 mg/kg
same,LD50,[17]; intravenous injection,> 2000 mg/kg
same,LD50,[17]; oral administration,> 2000 mg/kg
same,MIC,[18],50 mg/L
CC(OS(=O)(=O)O)C1C(=O)N2C(C(=O)O)=C(S(=O)(=O)O)CC12 (stereo not drawn) [SF-2103A substance],Diameter of Inhibition Zone,"[1]; SF-2103A alone, 1 μg per disk",does not show the inhibition zone
same,Diameter of Inhibition Zone,[1]; [24],0 mm
same,Diameter of Inhibition Zone,"[2]; SF-2103A alone, 1 μg per disk",does not show the inhibition zone
same,Diameter of Inhibition Zone,[2]; [24],0 mm
same,survival of infected mice,[19]; 1 mg/mouse subcutaneously twice at one and two hours after intraperitoneal infection,four of the five mice survived
same,survival of infected mice,[19]; 2 mg/mouse subcutaneously once at one hour after intraperitoneal infection,two of the five mice survived
same,Diameter of Inhibition Zone,"[3]; SF-2103A alone, 1 μg per disk",does not show the inhibition zone
same,Diameter of Inhibition Zone,[3]; [24],0 mm
same,Inhibitory Ratio,[20],34.4%
same,IC50,[21],0.504 µM
same,stability,[22]; acidic state (free acid form),very unstable
same,stability,"[22]; temperatures higher than room temperature, acidic or alkaline state",extremely unstable
